Where “and” joins values, the source holds several entries; their conditions need not be identical. Equal values may be shown once.
Columns and labels:
[1] = tested on: small intestine epithelium; details: mouse, in vivo
Protocol: The whole small intestine (duodenum, jejunum and ileum) was removed, cleaned from fecal content and fixed in 4% of PFA for 1 h. Re-hydration of the tissue was performed in 15% sucrose for 1 h and in 30% sucrose overnight. Depending on the experiment, the small intestine was entirely rolled, or cut into small pieces, then embedded in optimum cutting temperature (OCT) compound (Sakura), snap frozen and longitudinal or transversal […] were prepared.
For histological analyses, the longitudinal sections were counterstained with hematoxilin and eosin. For the histological quantitative analyses, inflammatory foci, altered villi and the thickness of lamina propria were scored for each section, while the number of goblet cells was counted for each villus. […] Then, a rabbit polyclonal antibody against the lysozyme protein (1:500 for 1 h, Thermo Scientific) and ALEXA FLUOR 488 Fragment of goat anti-rabbit IgG (1:300 for 1 h, Molecular Probes) were used. All steps were performed at room temperature. Lysozyme-positive areas were quantified on mosaic images using the Histolab software (Microvision Instruments). The quantification of Paneth cells was performed measuring the average area of the Lysozyme-positive clusters (group of Paneth cells) as well as the emission/μm^2 of those clusters (not shown).

commensal bacteria = format: in vivo, mice
Protocol: Mesenteric lymph nodes and spleens were aseptically removed, smashed in PBS and plated onto COS agar plates (BioMérieux), for aerobic and anaerobic growth. After 48 h of culture, single colonies were isolated and stocked in glycerol at −80° C.
Serial dilutions of feces from naïve mice or tumor bearers treated with NaCl or CTX, vancomycin or broad spectrum antibiotics (ATB) (ampicillin+streptomycin+colistin), were plated onto COS agar plates and after 48 h, single colonies were isolated and Gram staining was performed. The identification of specific bacteria was accomplished through the combination of morphological tests and the analysis through VITEK® automated system (BioMérieux, France) and verified in mass spectrometry (MALDI-TOF, see below) performed at Pasteur Institute, Paris, France.

splenocytes = assay: TCR cross-linking of splenocytes, IL-17 and IFNγ ELISA; format: in vivo, mice
MCA205 sarcomas = format: in vivo, C57BL/6 mice; details: mouse, in vivo
memory CD4+ T cells = details: 11 patients, after metronomic CTX
Protocol: Ex vivo restimulation assays using patients' autologous monocytes loaded with defined bacteria for 3 hours, neutralized with antibiotics, then cultured in GM-CSF+IL-4 (to differentiate into DC) and incubated for 3 days with CD4^+CD45RO^+ T cells (at a 1:2 ratio) purified from autologous blood at various time points (Day 0: before CTX, Day 12-46: after CTX, NSCLC: non small cell lung cancer). A. Cytokine release (IFNγ, TNF, IL-10) was monitored using ELISA. […] C. […] B-D show the cytokine levels in the 40 h supernatants of 250.000 memory CD4^+ T cells for each individual patient pre- and post-CTX administration.
The responses that were monitored included those against enterococci (E. hirae and E. faecalis, both immunogenic in mice receiving CTX), lactobacilli (L. johnsonii and the less relevant L. plantarum), as well as against E. coli.

[2] = tested on: Lysozyme M and RegIIIγ transcription; details: duodenum, 18 hours post-CTX
Protocol: Lamina propria cells were isolated from duodenum, ileum and colon 18 h post CTX, and total RNA extraction and genomic DNA removal were performed with the RNeasy Mini Kit (Qiagen, Hilden, Germany), following the manufacturer's instructions. Total RNA extraction and genomic DNA removal of ilea or duodena were performed with the RNeasy Mini Kit (Qiagen, Hilden, Germany), following the manufacturer's instructions. Total RNA was then reverse transcribed into cDNA with the SuperScript III Reverse Transcriptase and the RNaseOUT™ Recombinant Ribonuclease Inhibitor (Life Technologies, Saint Aubin, France), in the presence of random primers (Promega, Charbonnieres, France) and the Deoxynucleoside Triphosphate Set, PCR grade (Roche Diagnostics, Meylan, France). Expression of RegIIIγ (Mm00441127_m1) and LysM (Mm01612741_m1)-related genes was analyzed with TaqMan® Gene Expression Assays using the Universal Master Mix II on a StepOnePlus™ Real-Time PCR System (Life Technologies, France). Quantitative RT-PCR data were invariably normalized to the expression levels of the housekeeping gene peptidylprolyl isomerase A (Ppia) by means of the 2^−ΔCt method.

[3] = 18 h post CTX
Protocol: Gut barrier integrity was assessed by permeability to FITC-dextran (4 kDa, Sigma Aldrich). Fourteen hours after i.p. injection with NaCl or CTX at 100 or 200 mg/kg, mice were fasted for 4 hours and then orally fed with FITC-dextran at 0.6 mg/g body weight (80 mg/ml in NaCl, 18 h after NaCl/CTX treatment). After 3 to 4 h, the mice were euthanized and exsanguinated by cardiac puncture. Plasma FITC levels were subsequently determined using a fluorescence spectrophotometer (λex/λem=485/535 nm).

[4] = tested on: small intestine mucosal microbiota; details: mouse, in vivo
[5] = tested on: bacterial groups associated with small intestine mucosa
[6] = tested on: lamina propria cells of the small intestine; details: 7 days post-CTX
splenic CD4+ T cells = details: mouse, in vivo
[7] = tested on: CBir1 TCR Tg CD4+ T cells; details: mouse, in vivo
Protocol: CD4^+ T cells were isolated from B6.CBir1 TCR Tg mice using anti-mouse CD4 magnetic beads. Briefly, splenic cells were washed twice and incubated with anti-CD4 magnetic beads at 4° C. for 30 min and then separated by magnetic field. When checked by flow cytometry, over 95% of the cells were CD4^+ T cells. One million CBir1 Tg T cells (CD45.1^+) were adoptively transferred i.v. into CTX or NaCl treated-naïve congenic (CD45.2^+) mice two days after chemotherapy and spleens were harvested at day 5-7 post-transfer for flow cytometry analyses and ex vivo splenocyte restimulations. Flow cytometry analyses gated on CD45.1^+ cells to appreciate percentages of intracellular IL-17^+ or IFNg^+ cells after PMA/ionomycin 5 h restimulation in the presence of monensin.

gut microbiota [8] = details: NOD1-/-xNOD2-/- naive mice, CTX compared with PBS, seven days
splenic pTh17 cells = assay: Flow cytometry of splenic pTh17 / TH1 / Tc1 cells
Protocol: For cross-linking experiment, 2×10^5 total splenocytes per well (after red cell lysis) were incubated in MaxiSorp plates (Nunc) precoated with anti-CD3ε mAb (145-2C11) (0.5 μg per well; eBioscience) and/or anti-CD28 mAb (37.51) (2 μg/ml; BD). The supernatants were assayed at 48 h by ELISA for mouse IL-17A (eBioscience) and IFNγ (BD). […] For intracellular, cells were incubated for 4 h at 37° C. with 50 ng/ml of PMA, 1 μg/ml of ionomycin and BD Golgi STOP™. After membrane staining, cells were stained with anti-IL-17A, IFNγ, T-bet and RORγt using eBioscience FoxP3/Transcription factor staining buffer set.

tumor = assay: Effects of ATB regimen on the efficacy of CTX (tumor outgrowth); format: in vivo, mice; details: ATB regimen 15 days prior to tumor inoculation
Protocol: Distinct ATB regimen (Zhang Y et al. Toxicology and Applied Pharmacology 277 (2014) 138-145) were administered for 15 days prior to tumor inoculation and CTX therapy every other 13 days. Tumor outgrowth was monitored with a caliper twice a week. […] Each experiment contains several groups of 5 mice. *Anova test: p<0.05.

gut microbiota [9] = details: Zhang Y et al., 2014; cited from earlier work

## O=P1(N(CCCl)CCCl)NCCCO1 (centres unmarked) [CTX, cyclophosphamide]
[1]
  inflammatory status of the gut epithelial barrier (histology): shortening of small intestinal villi, discontinuities of the epithelial barrier, interstitial edema and focal accumulation of mononuclear cells in the lamina propria
Commensal bacteria; 48 h post therapy
  Lactobacillus johnsonii cultured from lymphoid organs: > 40 % cases
Commensal bacteria; 48 h post-CTX
  mice with translocation of commensal bacteria into mesenteric lymph nodes and spleens: > 50 % mice
Commensal bacteria; 48 hrs post-CTX
  bacterial translocation (colonies from spleens, anaerobic conditions) in NOD1xNOD2-/-: enhanced
splenocytes; day 7 after treatment
  polarization of splenic CD4+ T cells towards Th1 and Th17 pattern: induced the polarization
splenocytes; germ-free (GF) mice
  increase of ex vivo IL-17 release by TCR-stimulated splenocytes: failed to do so
splenocytes; specific pathogen-free (SPF) mice
  ex vivo IL-17 release by TCR-stimulated splenocytes: increased
MCA205 sarcomas
  antitumor effects against MCA205 sarcomas, GF versus SPF mice: reduced in GF compared with SPF mice
  immune-dependent anti-sarcoma effects in NOD1-/-xNOD2-/- mice: significantly enhanced
  immune-dependent anti-sarcoma effects in single knock out mice (NOD1 or NOD2 or RIP2 or CARD15) compared with WT: not ameliorated
Memory CD4+ T cells
  patients developing memory Th1 responses against E. coli: 18%
  patients developing memory Th1 responses against L. johnsonii: 18%
  patients developing memory Th1 responses against enterococci: 54%
  patients mounting a cellular immune response against L. plantarum: 9%
[2]
  expression of the antibacterial enzyme lysozyme: upregulated
[3]
  intestinal permeability (orally administered FITC-dextran detectable in blood): increase
[4]
  bacterial species/groups from the Firmicutes phylum in mucosa: reduction
  dysbiosis at early time points: failed to cause a major dysbiosis
  microbial composition of small intestine and caecum: significantly altered the microbial composition of the small intestine (but not of the caecum)
  proportion of Spirochaetes phylum: reduction
  relative abundance of the Treponema genus: 0%
  relative abundance: Butyrate-producing bacterium M62/1 (AY305309): 0.07% and 0.06%
  relative abundance: Butyrate-producing bacterium SM4/1 (AY305314): 0.21% and 0.20%
  relative abundance: Clostridium sp ASF502 (AF157053): 0.01% and 0.00%
  relative abundance: Clostridium sp. A9 (DQ789119): 0.23% and 0.27%
  relative abundance: Clostridium sp. Clone-33 (AB622843): 0.02% and 0.00%
  relative abundance: Clostridium sp. Clone-40 (AB622844): 0.05% and 0.02%
  relative abundance: Clostridium sp. Clone-49 (AB622849): 0.07% and 0.09%
  relative abundance: Clostridium sp. Culture-41 (AB622820): 0.10% and 0.08%
  relative abundance: Clostridium sp. Culture-54 (AB622823): 0.03% and 0.04%
  relative abundance: Coprococcus catus; L8 (AB361624): 0.03%
  relative abundance: Lachnospiraceae bacterium 14-2 (DQ789124): 0.05% and 0.02%
  relative abundance: Lactobacillus reuteri; LU3 (AY735406): 0.24% and 0.14%
  relative abundance: Roseburia faecis (T); M7211 (AY305310): 0.35% and 0.41%
  relative abundance: Roseburia intestinalis; XB6B4 (AM055815): 0.02% and 0.00%
  relative abundance: Rumen bacterium NK4A66 (GU124467): 0.07% and 0.10%
  relative abundance: Tannerella forsythia; OB071 (JN713185): 0.02%
[5]; day 7 post-CTX (not shown)
  relative amounts of SFB and TM7 or Clostridium group XIV: No CTX-specific modulations
[5]; small intestine mucosa, 7 days post-CTX
  abundance of lactobacilli and enterococci: reduction
[5]; tumor bearers, 7 days post-CTX
  bacterial counts of the Clostridium leptum: not affected
  total bacterial load of the small intestine: not affected
[6]
  frequencies of CD103+CD11b+ dendritic cells in lamina propria of the small intestine: significantly decreased
  frequencies of TCRαβ+CD3+ T cells expressing RORγt in lamina propria of the small intestine: significantly decreased
Splenic CD4+ T cells
  mice with Th1 memory responses against L. johnsonii: 50 % of mice
[7]
  immune responses against commensal bacteria (CBir1 Tg T cells): induced TCR-restricted, antigen specific immune responses against commensal bacteria
Gut microbiota [8]
  Clostridiaceae in the small intestines: overrepresentation
  Erysipelotrichaceae in SI: relative loss
  Lachnospiraceae in feces: relative loss
  Porphyromonadaceae (mainly Barnesiella) in the stool: overrepresentation
Splenic pTh17 cells; 7 days after treatment
  frequency of pathogenic Th17 (pTh17) cells within the spleen: increased
Splenic pTh17 cells; following CTX administration
  priming of splenic pTH17 cells in NOD2-/- mice: augmented

## O=C(O)c1cn(C2CC2)c2cc(N3CCNCC3)c(F)cc2c1=O [cifloxacin]
tumor
  effect on the CTX-induced antitumor effects: not efficient
Gut microbiota [9]
  Bacteroidetes in gut microbiota: marked suppression
